Legend:
Assay in all cases: relative viability (nuclei count vs DMSO), 5 days (fraction); higher = more cells survive
[1] = compound: CCC1=CN=CN=C1N2CCN(CC2)CC3=NC4=C(N3)C=C(C=C4)C(F)(F)F + COc1cccc2cc(-c3nc([C@H]4CC[C@H](C(=O)O)CC4)n4ncnc(N)c34)[nH]c12 [OSI-027] (partner 0.5 µM)
Procedure, shortened: (§1)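 Lung cancer cell lines were pin-tool dosed in 1536-well plates on the day after seeding, with either a lone drug or a fixed anchor-drug dose plus five library-drug doses (not always all listed) in √10 steps. Nuclei were counted on 4× images after 5 days. Relative viability is the ratio of treated-well to vehicle-well nuclei counts, with each value a median of duplicate plates.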

[2] = compound: CCC1=CN=CN=C1N2CCN(CC2)CC3=NC4=C(N3)C=C(C=C4)C(F)(F)F + Cc1cc(Nc2cc(N3CCN(C)CC3)nc(Sc3ccc(NC(=O)C4CC4)cc3)n2)n[nH]1 [Tozasertib] (partner 0.1 µM)
Procedure, shortened: as §1

[3] = compound: CCn1c(-c2nonc2N)nc2cnc(Oc3cccc(NC(=O)c4ccc(OCCN5CCOCC5)cc4)c3)cc21 + N=C(N)NC(=N)NCCc1ccccc1 [Phenformin] (partner 250 µM)
Procedure, shortened: as §1

[4] = compound: N=C1NC(=O)/C(=C/c2ccc(O)cc2)S1 [Mirin] + CC(=O)c1c(C)c2cnc(Nc3ccc(N4CCNCC4)cn3)nc2n(C2CCCC2)c1=O [Palbociclib] (partner 0.5 µM)
Procedure, shortened: as §1

## UMC-11
[1]; first compound 0.04 µM
  relative viability: 0.464
[1]; first compound 0.1265 µM
  relative viability: 0.495
[1]; first compound 0.4 µM
  relative viability: 0.417
[1]; first compound 1.265 µM
  relative viability: 0.445
[1]; first compound 4 µM
  relative viability: 0.406
[2]; first compound 0.04 µM
  relative viability: 0.197
[2]; first compound 0.1265 µM
  relative viability: 0.216
[2]; first compound 0.4 µM
  relative viability: 0.216
[2]; first compound 1.265 µM
  relative viability: 0.204
[2]; first compound 4 µM
  relative viability: 0.214
[3]; first compound 0.04 µM
  relative viability: 0.304
[3]; first compound 0.1265 µM
  relative viability: 0.25
[3]; first compound 0.4 µM
  relative viability: 0.198
[3]; first compound 1.265 µM
  relative viability: 0.225
[3]; first compound 4 µM
  relative viability: 0.129
[4]; first compound 0.25 µM
  relative viability: 0.33
[4]; first compound 2.5 µM
  relative viability: 0.317
[4]; first compound 7.906 µM
  relative viability: 0.331
[4]; first compound 25 µM
  relative viability: 0.309

From the supplement of paper PMC10307832
